Legend:
[1] = in vitro; format: cell-based; conditions: for CC50: African green monkey; for CC50 at 7 days: human
Description: Anti-human cytomegalovirus (HCMV) activity is determined in a yield reduction assay utilizing a recombinant HCMV (RC256) that produces β-gal (Spaete, R. R.; Mocarski, E. S. Proceedings of the National Academy of Sciences USA 84:7213-7217, 1987). Primary human diploid fibroblasts (HFF cells) are infected at an moi of 0.01 with RC256, and serial dilutions of the compound in DMSO are added. The final concentration of DMSO in all wells is 1%. The infection is allowed to proceed for 7 days at which time the β-gal activity in cell lysates is measured. Activity in wells containing compound is compared to control wells and percent inhibition determined.
Cellular toxicity assays: Cellular toxicity is measured in HFF cells. Cells are plated in 96 well plates at 1×10^4 cells/well. Serial dilutions of compounds are added to the wells in DMSO, with the final concentration of DMSO in all wells at 1%, in a total volume of 200 μL. The plates are maintained in a 37° C. incubator for 7 days. 50 μL of a solution of XTT (sodium-3′[1-(phenyl-amino-carbonyl)-3,-tetrazolium]-bis(bis(4-methoxy-6-nitro)-benzene sulfonic acid hydrate) (3×10^−4 mg/ml) is added to each well, and the plates returned to the incubator for 4 hours, after which the A450 (absorbance at wavelength of 450 nm) for each well is measured in a plate reader. (Roehm, N. W., et al J. Immunol. Meth. 142:257-265, 1991). Toxicity is determined by comparison of the OD (optical density) of a well containing compound to the OD of wells containing DMSO only.

[2] = tested on: herpes simplex virus 1 (HSV); assay: microbe, parasite or virus in culture; format: cell-based; conditions: for EC50: Human alphaherpesvirus 1, Vero; for TI (EC50/TC50): therapeutic index, HSV-1, Vero cells
Description: Vero (African Green Monkey kidney) cells are infected at a multiplicity of infection of 0.01 with the virus, and serial dilutions of the compound in dimethyl sulfoxide (DMSO) are added. The final concentration of DMSO in all wells is 1%. DMSO is added to control wells. The infection is allowed to proceed for 2 days at which time the β-gal activity in cell lysates is measured. Activity in wells containing compound is compared to control wells and percent inhibition determined.

[3] = tested on: human cytomegalovirus (HCMV); assay: microbe, parasite or virus in culture; format: cell-based; conditions: Human betaherpesvirus 5, HFF
Description: Primary human diploid fibroblasts (HFF cells) are infected at an moi of 0.01 with RC256, and serial dilutions of the compound in DMSO are added. The final concentration of DMSO in all wells is 1%. The infection is allowed to proceed for 7 days at which time the β-gal activity in cell lysates is measured. Activity in wells containing compound is compared to control wells and percent inhibition determined.

melting point [°C] | SMILES | CC50 [1] [nM] | EC50 [2] [nM] | TI (EC50/TC50) [2] | CC50 at 7 days [1] [nM] | EC50 [3] [nM]
91 to 93 | c1ccc(Oc2ccc(CNc3ccc4oc5ccccc5c4c3)cc2)cc1 |  |  |  |  | 
 | CCn1c2ccccc2c2cc(NCc3cccc(F)c3C)ccc21 [Example 217, (9-Ethyl-9H-carbazol-3-yl)-(3-fluoro-2-methyl-benzyl)-amine] | > 100000 | 320 | >313 |  | 
217 to 218 | O=C1c2ccccc2C(=O)N1c1ccc2oc3ccccc3c2c1 |  |  |  |  | 
93 to 94 | c1ccc(Oc2cccc(CNc3ccc4oc5ccccc5c4c3)c2)cc1 |  |  |  |  | 
 | Fc1ccc(CNc2ccc3c(c2)Oc2ccccc2S3)c(F)c1 [Example 208, (2,4-Difluoro-benzyl)-phenoxathiin-3-yl-amine] | > 100000 | 260 | >385 |  | 
84 to 85 | Cc1ccccc1CNc1ccc2oc3ccccc3c2c1 |  |  |  |  | 
193 to 195 | c1ccc2c(c1)CN(c1ccc3oc4ccccc4c3c1)C2 |  |  |  |  | 
94 to 95 | CC(Nc1ccc2oc3ccccc3c2c1)c1ccccc1 (stereo not drawn) |  |  |  |  | 
 | c1cnc2c(c1)Oc1cc(NCc3cccc4ccccc34)ccc1S2 [Example 93, Naphthalene-1-ylmethyl-(10-oxa-9-thia-1-aza-anthracen-6-yl)-amine] | > 100000 | 1300 | >77 |  | 
 | Nc1nc(O)c2ncn(COC(CO)CO)c2n1 [Ganciclovir] |  |  |  | > 100000 | 2600
 | O=[N+]([O-])c1ccc(CNc2ccc3oc4ccccc4c3c2)cc1 [Example 60, Dibenzofuran-2-yl-(4-nitro-benzyl)-amine] | > 100000 | 500 | >200 | > 100000 | 1300
75 to 77 | FC(F)(F)Oc1ccc(CNc2ccc3oc4ccccc4c3c2)cc1 |  |  |  |  | 
 | COc1ccc(CNc2cccc3c2oc2ccccc23)cc1 [Example 150, Dibenzofuran-4-yl-(4-methoxy-benzyl)-amine] | > 100000 | 850 | >118 |  | 
62 to 63 | c1ccc2c(c1)oc1ccc(NCc3ccsc3)cc12 |  |  |  |  | 
 | CCCC(Cc1ccccc1)Nc1ccc2oc3ccccc3c2c1 (stereo not drawn) [Example 65, (1-Benzyl-butyl)-dibenzofuran-2-yl-amine] |  |  |  | > 100000 | 3000
81 to 82 | c1ccc(CNc2ccc3oc4ccccc4c3c2)cc1 |  |  |  |  | 
 | COc1ccc(CNc2ccc3oc4ccc(Cl)cc4c3c2)cc1F [Example 139, (8-Chloro-dibenzofuran-2-yl)-(3-fluoro-4-methoxy-benzyl)-amine] | > 100000 | 400 | >250 |  | 
145 to 147 | Oc1ccccc1CNc1ccc2oc3ccccc3c2c1 |  |  |  |  | 
85 to 86 | c1ccc2c(c1)oc1ccc(NCc3ccc4c(c3)OCO4)cc12 |  |  |  |  | 

SMILES | melting point [°C] | CC50 [1] [nM] | EC50 [2] [nM] | TI (EC50/TC50) [2] | CC50 at 7 days [1] [nM] | EC50 [3] [nM]
COc1cc(CNc2ccc3oc4ccccc4c3c2)cc(OC)c1 [Example 56, Dibenzofuran-2-yl-(3,5-dimethoxy-benzyl)-amine] | 87 to 88 | > 100000 | 700 | >143 |  | 
FC(F)(F)c1ccc(CNc2ccc3oc4ccccc4c3c2)cc1 [Example 57, Dibenzofuran-2-yl-(4-trifluoromethyl-benzyl)-amine] | 89 to 90 | > 100000 | 810 | >124 | > 100000 | 1700
CSc1ccc(CNc2ccc3oc4ccccc4c3c2)cc1 [Example 61, Dibenzofuran-2-yl-(4-methylsulfanyl-benzyl)-amine] | 103 to 104 |  |  |  | > 100000 | 2900

Source: US6800656B2, “Tricyclic compounds and method of treating herpes virus” (Warner Lambert Company, priority 2000, dated 2004)
